Measured values from patent US8785486B2, “Imidazo[1,2-A]pyridine derivatives and their use as positive allosteric modulators of mGluR2 receptors” (Janssen Pharmaceuticals, Inc., priority 2007, dated 2014).

Experiments:
[1] = biological target: T1, human mGluR2 receptor (Homo sapiens, UniProt Q14416); assay: [35S]GTPγS binding assay (PAM assay) using membranes from cells transfected with the human mGluR2 receptor; format: biochemical; details: membranes of CHO cells with human mGluR2, glutamate at predetermined EC25 concentration, averages of duplicate values of 11-concentration response curves; for EC50: read-out: GTPγS - hR2 PAM pEC50 (converted)
T1 construct: expressed in transfected cells; host or cells: CHO cells
Procedure: The [^35S]GTPγS binding assay is a functional membrane-based assay used to study G-protein coupled receptor (GPCR) function whereby incorporation of a non-hydrolysable form of GTP, [^35S]GTPγS (guanosine 5′-triphosphate, labelled with […] ^35S), is measured.
CHO-cells were cultured to pre-confluence and stimulated with 5 mM butyrate for 24 hours, prior to washing in PBS, and then collection by scraping in homogenisation buffer (50 mM Tris-HCl buffer, pH 7.4, 4° C.). Cell lysates were homogenized briefly (15 s) using an ultra-turrax homogenizer. The homogenate was centrifuged at 23 500×g for 10 minutes and the supernatant discarded. The pellet was resuspended in 5 mM Tris-HCl, pH 7.4 and centrifuged again (30 000×g, 20 min, 4° C.). The final pellet was resuspended in 50 mM HEPES, pH 7.4 and stored at −80° C. in appropriate aliquots before use. Protein concentration was determined by the Bradford method (Bio-Rad, USA) with bovine serum albumin as standard.
Measurement of mGluR2 positive allosteric modulatory activity of test compounds in membranes containing human mGluR2 was performed using frozen membranes that were thawed and briefly homogenised prior to pre-incubation in 96-well microplates (15 μg/assay well, 30 minutes, 30° C.) in assay buffer (50 mM HEPES pH 7.4, 100 mM NaCl, 3 mM MgCl2, 50 μM GDP, 10 μg/ml saponin,) with increasing concentrations of positive allosteric modulator (from 0.3 nM to 50 μM) and either a minimal pre-determined concentration of glutamate (PAM assay), or no added glutamate. […] After addition of [^35S]GTPγS (0.1 nM, f.c.) to achieve a total reaction volume of 200 μl, microplates were shaken briefly and further incubated to allow [^35S]GTPγS incorporation on activation (30 minutes, 30° C.). The reaction was stopped by rapid vacuum filtration over glass-fibre filter plates (Unifilter 96-well GF/B filter plates, Perkin-Elmer, Downers Grove, USA) microplate using a 96-well plate cell harvester (Filtermate, Perkin-Elmer, USA), and then by washing three times with 300 μl of ice-cold wash buffer (Na2PO4.2H2O 10 mM, NaH2PO4.H2O 10 mM, pH=7.4). Filters were then air-dried, and 40 μl of liquid scintillation cocktail (Microscint-O) was added to each well, and membrane-bound [^35S]GTPγS was measured in a 96-well scintillation plate reader (Top-Count, Perkin-Elmer, USA). Non-specific [^35S]GTPγS binding is determined in the presence of cold 10 μM GTP. Each curve was performed at least once using duplicate sample per data point and at 11 concentrations.
The concentration-response curves of representative compounds of the present invention in the presence of added EC25 of mGluR2 agonist glutamate to determine positive allosteric modulation (PAM), were generated using the Prism GraphPad software (Graph Pad Inc, San Diego, USA). The curves were fitted to a four-parameter logistic equation (Y=Bottom+(Top-Bottom)/(1+10^((Log EC50−X)*Hill Slope) allowing determination of EC50 values. The EC50 is the concentration of a compound that causes a half-maximal potentiation of the glutamate response. This is calculated by subtracting the maximal responses of glutamate in presence of a fully saturating concentration of a positive allosteric modulator from the response of glutamate in absence of a positive allosteric modulator. The concentration producing the half-maximal effect is then calculated as EC50

T1 sequence (Q14416 19-872): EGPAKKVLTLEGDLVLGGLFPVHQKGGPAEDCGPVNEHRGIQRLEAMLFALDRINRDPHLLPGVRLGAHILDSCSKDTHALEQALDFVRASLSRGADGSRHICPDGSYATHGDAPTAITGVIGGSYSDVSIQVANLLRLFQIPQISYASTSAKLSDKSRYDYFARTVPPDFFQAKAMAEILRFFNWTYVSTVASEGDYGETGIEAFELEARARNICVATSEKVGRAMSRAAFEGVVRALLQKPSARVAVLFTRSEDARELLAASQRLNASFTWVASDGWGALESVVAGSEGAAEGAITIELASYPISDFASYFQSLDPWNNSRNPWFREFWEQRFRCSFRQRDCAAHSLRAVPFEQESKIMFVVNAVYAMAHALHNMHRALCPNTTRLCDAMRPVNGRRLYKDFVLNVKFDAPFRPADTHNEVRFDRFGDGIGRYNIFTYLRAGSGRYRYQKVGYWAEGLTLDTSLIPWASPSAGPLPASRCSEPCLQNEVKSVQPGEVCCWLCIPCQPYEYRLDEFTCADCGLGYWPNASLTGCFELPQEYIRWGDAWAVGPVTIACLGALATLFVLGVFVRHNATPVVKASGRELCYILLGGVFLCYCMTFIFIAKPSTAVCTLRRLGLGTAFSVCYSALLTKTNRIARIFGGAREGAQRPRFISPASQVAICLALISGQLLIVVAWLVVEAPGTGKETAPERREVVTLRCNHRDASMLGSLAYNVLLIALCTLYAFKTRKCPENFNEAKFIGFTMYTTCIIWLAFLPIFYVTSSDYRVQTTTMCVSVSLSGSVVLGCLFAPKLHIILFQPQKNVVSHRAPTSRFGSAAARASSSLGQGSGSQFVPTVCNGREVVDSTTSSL

Row | Compound | EC50 [1] [nM] | melting point [°C] | GTPγS - hR2 PAM pEC50 [1]
1 | N#Cc1c(-c2ccc(Sc3ccccc3)cc2)ccn2c(CC(F)(F)F)cnc12 [Example 71] | 182 | 195.6 | –
2 | N#Cc1c(-c2ccc(Oc3cccc(F)c3)cc2)ccn2c(CC(F)(F)F)cnc12 [Example 78] | 219 | 176 | –
3 | N#Cc1c(-c2ccc(Oc3ccccc3)cc2)ccn2c(CC(F)(F)F)cnc12 [Example 80] | – | 174.3 | 6.73
4 | CC(O)(c1ccccc1)c1ccc(-c2ccn3c(CC(F)(F)F)cnc3c2C#N)cc1 (stereo not shown) [Example 81] | 525 | 102.7 | –
5 | N#Cc1c(-c2ccc(N[C@H]3CC[C@H](O)CC3)cc2)ccn2c(CC(F)(F)F)cnc12 [Example 91, 7-[4-(4-hydroxy-cyclohexylamino)-phenyl]-3-(2,2,2-trifluoro-ethyl)-imidazo[1,2-a]pyridine-8-carbonitrile] | 1120 | 137.5 | –
6 | C[C@]1(O)CC[C@H](Nc2ccc(-c3ccn4c(CC(F)(F)F)cnc4c3C#N)cc2Cl)CC1 [Example 94] | 174 | 202.6 | –
7 | FC(F)(F)Cc1cnc2c(Cl)c(-c3ccc(NC4CCOCC4)c(Cl)c3)ccn12 [Example 99] | 631 | 149.7 | –
8 | C[C@]1(O)CC[C@H](Nc2ccc(-c3ccn4c(CC(F)(F)F)cnc4c3Cl)cc2Cl)CC1 [Example 100, (trans)-4-{2-Chloro-4-[8-chloro-3-(2,2,2-trifluoro-ethyl)-imidazo[1,2-a]pyridin-7-yl]-phenylamino}-1-methyl-cyclohexanol] | 126 | 205.1 | –
9 | O[C@H]1CC[C@H](Nc2ccc(-c3ccn4c(CC(F)(F)F)cnc4c3Cl)cc2Cl)CC1 [Example 101, 4-{2-Chloro-4-[8-chloro-3-(2,2,2-trifluoro-ethyl)-imidazo[1,2-a]pyridin-7-yl]phenylamino}-cyclohexanol] | 155 | 183.1 | –
10 | N#Cc1c(N2CCc3c(oc4ccccc34)C2)ccn2c(CC(F)(F)F)cnc12 [Example 116] | 174 | 252.5 | –

The next lines start with the values.

Row | EC50 [1] [nM] | melting point [°C] | GTPγS - hR2 PAM pEC50 [1] | Compound
11 | 1050 | 234.1 | – | Cc1cc(Oc2ccc(-c3ccn4c(CCCC(F)(F)F)cnc4c3C#N)cc2F)ccn1 [Example 73]
12 | 170 | 163 | – | N#Cc1c(-c2ccc(Oc3ccc(F)cc3)cc2)ccn2c(CC(F)(F)F)cnc12 [Example 74]
13 | 372 | 277.2 | – | Cc1cc(Oc2ccc(-c3ccn4c(CCC5CC5)cnc4c3C#N)cc2F)ccn1 [Example 75]
14 | 105 | 177.9 | – | N#Cc1c(-c2ccc(Oc3ccccc3F)cc2)ccn2c(CC(F)(F)F)cnc12 [Example 77]
15 | 257 | 173.4 | – | N#Cc1c(-c2ccc(C(F)c3ccccc3)cc2)ccn2c(CC(F)(F)F)cnc12 (stereo not shown) [Example 79]
16 | 44.7 | 143.2 | – | CC(C)(O)c1ccc(Oc2ccc(-c3ccn4c(CC(F)(F)F)cnc4c3C#N)cc2)cc1 [Example 82]
17 | 275 | 161.6 | – | C[C@]1(O)CC[C@@H](Nc2ccc(-c3ccn4c(CC(F)(F)F)cnc4c3C#N)cc2Cl)CC1 [Example 89]
18 | – | 230.7 | 6.15 | N#Cc1c(-c2ccc(NC3CCOCC3)c(Cl)c2)ccn2c(CC(F)(F)F)cnc12 [Example 92]
19 | 295 | 123.7 | – | N#Cc1c(-c2ccc(N[C@H]3CC[C@H](O)CC3)c(Cl)c2)ccn2c(CC(F)(F)F)cnc12 [Example 96, (trans)-7-[3-Chloro-4-(4-hydroxy-cyclohexylamino)-phenyl]-3-(2,2,2-trifluoro-ethyl)-imidazo[1,2-a]pyridine-8-carbonitrile]
20 | 933 | 210.2 | – | N#Cc1c(-c2ccc(O[C@H]3CC[C@@H](O)CC3)c(Cl)c2)ccn2c(CC(F)(F)F)cnc12 [Example 103]
21 | 676 | 174 | – | CC(C)(O)C1CCN(c2ccc(-c3ccn4c(CC(F)(F)F)cnc4c3C#N)cc2)CC1 [Example 112]
22 | 141 | 207.1 | – | N#Cc1c(-c2ccc(COc3cccc(F)c3)cc2)ccn2c(CC(F)(F)F)cnc12 [Example 114]
23 | 214 | 198.7 | – | N#Cc1c(N2CCC3(CCc4ccccc4O3)CC2)ccn2c(CC(F)(F)F)cnc12 [Example 115]
